In patent US20200024278A1, “COMPOSITION COMPRISING ANTIBIOTIC COMPOUND AND AN HETEROCYCLIC COMPOUND AND THEIR USE IN PREVENTING OR TREATING BACTERIAL INFECTIONS” (MUTABILIS, priority 2016, published 2020):

Experiments:
Test in all cases: MIC, broth microdilution (CLSI), substance alone or ATB combined with compound at 4 or 8 μg/mL
Assay type in all cases: cell-based, A. baumannii
[1] = test system: ABA 19606
How it was run: (§1)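 Growth inhibition endpoint, read visually after 16-20 h at 35° C in ambient air. Cation-adjusted Mueller-Hinton broth, inoculum 5·10^5 CFU/mL, CLSI M7-A7 protocol.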

[2] = test system: ABA UFR156
How it was run: as §1

[3] = test system: ABA UFR160
How it was run: as §1

[4] = test system: ABA UFR151
How it was run: as §1

[5] = test system: ABA UFR161
How it was run: as §1

[6] = test system: ABA 107292
How it was run: as §1

[7] = test system: ABA UFR157
How it was run: as §1

[8] = test system: ABA UFR155
How it was run: as §1

[9] = test system: ABA UFR158
How it was run: as §1

[10] = test system: ABA UFR159
How it was run: as §1

[11] = test system: ABA UFR153
How it was run: as §1

[12] = Acinetobacter baumannii, antibiotic alone, read-out: MIC ATB alone

CO/N=C(\C(=O)N[C@@H]1C(=O)N2C(C(=O)[O-])=C(C[N+]3(C)CCCC3)CS[C@H]12)c1csc(N)n1 [FEP, Cefepime]
MIC [1, 12]: 16 µg/mL
MIC ATB combined with Example 1 @8 μg/ml ([1]; with Example 1 @8 μg/ml): 32 µg/mL
MIC ATB combined with Example 3 @8 μg/ml ([1]; with Example 3 @8 μg/ml): 8 µg/mL
MIC ATB combined with Example 6 @8 μg/ml ([1]; with Example 6 @8 μg/ml): <=0.25 μg/mL
MIC ATB combined with Example 9 @4 μg/ml ([1]; with Example 9 @4 μg/ml): 16 µg/mL
MIC ATB combined with Example 10 @8 μg/ml ([1]; with Example 10 @8 μg/ml): 8 µg/mL
MIC ATB combined with Example 11 @8 μg/ml ([1]; with Example 11 @8 μg/ml): 16 µg/mL
MIC ATB combined with Example 12 @8 μg/ml ([1]; with Example 12 @8 μg/ml): 8 µg/mL
MIC ATB combined with Example 15 @4 μg/ml ([1]; with Example 15 @4 μg/ml): 16 µg/mL
MIC [2, 12]: > 128 µg/mL
MIC ATB combined with Example 1 @8 μg/ml ([2]; with Example 1 @8 μg/ml): 32 µg/mL
MIC ATB combined with Example 3 @8 μg/ml ([2]; with Example 3 @8 μg/ml): 8 µg/mL
MIC ATB combined with Example 6 @8 μg/ml ([2]; with Example 6 @8 μg/ml): 8 µg/mL
MIC ATB combined with Example 9 @4 μg/ml ([2]; with Example 9 @4 μg/ml): 32 µg/mL
MIC ATB combined with Example 10 @8 μg/ml ([2]; with Example 10 @8 μg/ml): 8 µg/mL
MIC ATB combined with Example 11 @8 μg/ml ([2]; with Example 11 @8 μg/ml): 32 µg/mL
MIC ATB combined with Example 12 @8 μg/ml ([2]; with Example 12 @8 μg/ml): 32 µg/mL
MIC ATB combined with Example 15 @4 μg/ml ([2]; with Example 15 @4 μg/ml): 32 µg/mL
MIC [3, 12]: > 128 µg/mL
MIC ATB combined with Example 1 @8 μg/ml ([3]; with Example 1 @8 μg/ml): >128 µg/mL
MIC ATB combined with Example 3 @8 μg/ml ([3]; with Example 3 @8 μg/ml): >128 µg/mL
MIC ATB combined with Example 6 @8 μg/ml ([3]; with Example 6 @8 μg/ml): <0.25 µg/mL
MIC ATB combined with Example 9 @4 μg/ml ([3]; with Example 9 @4 μg/ml): >128 µg/mL
MIC ATB combined with Example 10 @8 μg/ml ([3]; with Example 10 @8 μg/ml): >128 µg/mL
MIC ATB combined with Example 11 @8 μg/ml ([3]; with Example 11 @8 μg/ml): >128 µg/mL
MIC ATB combined with Example 12 @8 μg/ml ([3]; with Example 12 @8 μg/ml): >128 µg/mL
MIC ATB combined with Example 15 @4 μg/ml ([3]; with Example 15 @4 μg/ml): >128 µg/mL
MIC [4, 12]: 2 µg/mL
MIC ATB combined with Example 1 @8 μg/ml ([4]; with Example 1 @8 μg/ml): 2 µg/mL
MIC ATB combined with Example 3 @8 μg/ml ([4]; with Example 3 @8 μg/ml): 1 µg/mL
MIC ATB combined with Example 6 @8 μg/ml ([4]; with Example 6 @8 μg/ml): <0.25 µg/mL
MIC ATB combined with Example 9 @4 μg/ml ([4]; with Example 9 @4 μg/ml): 2 µg/mL
MIC ATB combined with Example 10 @8 μg/ml ([4]; with Example 10 @8 μg/ml): 2 µg/mL
MIC ATB combined with Example 11 @8 μg/ml ([4]; with Example 11 @8 μg/ml): 2 µg/mL
MIC ATB combined with Example 12 @8 μg/ml ([4]; with Example 12 @8 μg/ml): 2 µg/mL
MIC ATB combined with Example 15 @4 μg/ml ([4]; with Example 15 @4 μg/ml): 2 µg/mL
MIC [5, 12]: > 128 µg/mL
MIC ATB combined with Example 1 @8 μg/ml ([5]; with Example 1 @8 μg/ml): >128 µg/mL
MIC ATB combined with Example 3 @8 μg/ml ([5]; with Example 3 @8 μg/ml): >128 µg/mL
MIC ATB combined with Example 6 @8 μg/ml ([5]; with Example 6 @8 μg/ml): >128 µg/mL
MIC ATB combined with Example 9 @4 μg/ml ([5]; with Example 9 @4 μg/ml): >128 µg/mL
MIC ATB combined with Example 10 @8 μg/ml ([5]; with Example 10 @8 μg/ml): >128 µg/mL
MIC ATB combined with Example 11 @8 μg/ml ([5]; with Example 11 @8 μg/ml): >128 µg/mL
MIC ATB combined with Example 12 @8 μg/ml ([5]; with Example 12 @8 μg/ml): >128 µg/mL
MIC ATB combined with Example 15 @4 μg/ml ([5]; with Example 15 @4 μg/ml): >128 µg/mL
MIC [6, 12]: 64 µg/mL
MIC ATB combined with Example 1 @8 μg/ml ([6]; with Example 1 @8 μg/ml): 64 µg/mL
MIC ATB combined with Example 3 @8 μg/ml ([6]; with Example 3 @8 μg/ml): 8 µg/mL
MIC ATB combined with Example 6 @8 μg/ml ([6]; with Example 6 @8 μg/ml): 16 µg/mL
MIC ATB combined with Example 9 @4 μg/ml ([6]; with Example 9 @4 μg/ml): 16 µg/mL
MIC ATB combined with Example 10 @8 μg/ml ([6]; with Example 10 @8 μg/ml): 16 µg/mL
MIC ATB combined with Example 11 @8 μg/ml ([6]; with Example 11 @8 μg/ml): 32 µg/mL
MIC ATB combined with Example 12 @8 μg/ml ([6]; with Example 12 @8 μg/ml): 8 µg/mL
MIC ATB combined with Example 15 @4 μg/ml ([6]; with Example 15 @4 μg/ml): 32 µg/mL
MIC [7, 12]: 32 µg/mL
MIC ATB combined with Example 1 @8 μg/ml ([7]; with Example 1 @8 μg/ml): 8 µg/mL
MIC ATB combined with Example 3 @8 μg/ml ([7]; with Example 3 @8 μg/ml): 4 µg/mL
MIC ATB combined with Example 6 @8 μg/ml ([7]; with Example 6 @8 μg/ml): <0.25 µg/mL
MIC ATB combined with Example 9 @4 μg/ml ([7]; with Example 9 @4 μg/ml): 8 µg/mL
MIC ATB combined with Example 10 @8 μg/ml ([7]; with Example 10 @8 μg/ml): 8 µg/mL
MIC ATB combined with Example 11 @8 μg/ml ([7]; with Example 11 @8 μg/ml): 8 µg/mL
MIC ATB combined with Example 12 @8 μg/ml ([7]; with Example 12 @8 μg/ml): 4 µg/mL
MIC ATB combined with Example 15 @4 μg/ml ([7]; with Example 15 @4 μg/ml): 8 µg/mL
MIC [8, 12]: 128 µg/mL
MIC ATB combined with Example 1 @8 μg/ml ([8]; with Example 1 @8 μg/ml): 64 µg/mL
MIC ATB combined with Example 3 @8 μg/ml ([8]; with Example 3 @8 μg/ml): 32 µg/mL
MIC ATB combined with Example 6 @8 μg/ml ([8]; with Example 6 @8 μg/ml): 16 µg/mL
MIC ATB combined with Example 9 @4 μg/ml ([8]; with Example 9 @4 μg/ml): 32 µg/mL
MIC ATB combined with Example 10 @8 μg/ml ([8]; with Example 10 @8 μg/ml): 64 µg/mL
MIC ATB combined with Example 11 @8 μg/ml ([8]; with Example 11 @8 μg/ml): 64 µg/mL
MIC ATB combined with Example 12 @8 μg/ml ([8]; with Example 12 @8 μg/ml): 64 µg/mL
MIC ATB combined with Example 15 @4 μg/ml ([8]; with Example 15 @4 μg/ml): 32 µg/mL
MIC [9, 12]: > 128 µg/mL
MIC ATB combined with Example 1 @8 μg/ml ([9]; with Example 1 @8 μg/ml): >128 µg/mL
MIC ATB combined with Example 3 @8 μg/ml ([9]; with Example 3 @8 μg/ml): >128 µg/mL
MIC ATB combined with Example 6 @8 μg/ml ([9]; with Example 6 @8 μg/ml): <0.25 µg/mL
MIC ATB combined with Example 9 @4 μg/ml ([9]; with Example 9 @4 μg/ml): >128 µg/mL
MIC ATB combined with Example 10 @8 μg/ml ([9]; with Example 10 @8 μg/ml): >128 µg/mL
MIC ATB combined with Example 11 @8 μg/ml ([9]; with Example 11 @8 μg/ml): >128 µg/mL
MIC ATB combined with Example 12 @8 μg/ml ([9]; with Example 12 @8 μg/ml): >128 µg/mL
MIC ATB combined with Example 15 @4 μg/ml ([9]; with Example 15 @4 μg/ml): >128 µg/mL
MIC [10, 12]: > 128 µg/mL
MIC ATB combined with Example 1 @8 μg/ml ([10]; with Example 1 @8 μg/ml): >128 µg/mL
MIC ATB combined with Example 3 @8 μg/ml ([10]; with Example 3 @8 μg/ml): >128 µg/mL
MIC ATB combined with Example 6 @8 μg/ml ([10]; with Example 6 @8 μg/ml): >128 µg/mL
MIC ATB combined with Example 9 @4 μg/ml ([10]; with Example 9 @4 μg/ml): >128 µg/mL
MIC ATB combined with Example 10 @8 μg/ml ([10]; with Example 10 @8 μg/ml): >128 µg/mL
MIC ATB combined with Example 11 @8 μg/ml ([10]; with Example 11 @8 μg/ml): >128 µg/mL
MIC ATB combined with Example 12 @8 μg/ml ([10]; with Example 12 @8 μg/ml): >128 µg/mL
MIC ATB combined with Example 15 @4 μg/ml ([10]; with Example 15 @4 μg/ml): >128 µg/mL
MIC [11, 12]: > 128 µg/mL
MIC ATB combined with Example 1 @8 μg/ml ([11]; with Example 1 @8 μg/ml): 16 µg/mL
MIC ATB combined with Example 3 @8 μg/ml ([11]; with Example 3 @8 μg/ml): 8 µg/mL
MIC ATB combined with Example 6 @8 μg/ml ([11]; with Example 6 @8 μg/ml): <=0.25 μg/mL
MIC ATB combined with Example 9 @4 μg/ml ([11]; with Example 9 @4 μg/ml): 16 µg/mL
MIC ATB combined with Example 10 @8 μg/ml ([11]; with Example 10 @8 μg/ml): 8 µg/mL
MIC ATB combined with Example 11 @8 μg/ml ([11]; with Example 11 @8 μg/ml): 16 µg/mL
MIC ATB combined with Example 12 @8 μg/ml ([11]; with Example 12 @8 μg/ml): 8 µg/mL
MIC ATB combined with Example 15 @4 μg/ml ([11]; with Example 15 @4 μg/ml): 16 µg/mL
